Measured values reported in ChEMBL document CHEMBL5096210, “Discovery of Betulinic Acid Derivatives as Potent Intestinal Farnesoid X Receptor Antagonists to Ameliorate Nonalcoholic Steatohepatitis” (J Med Chem, 2022).
Active and inactive are the calls of the source. The calls are words filed in the database; no cut-off is given here.

How the values were obtained:
Mus musculus [1] = species: Mus musculus; test: Anti-NASH activity in GAN diet-induced […] mouse assessed as reduction in Dgat2 level; format: functional, organism-based
[2] = Drug metabolism in C57BL6 mouse Gall bladder assessed as ((1S,3aS,5aR,5bR,7aR,9R,11aR,11bR,13aR,13bR)-9-hydroxy-1-isopropyl-5a,5b,8,8,11a-pentamethylicosahydro-1H-cyclopenta[a]chrysene-3a-carbonyl)glycine formation at 10 mg/kg, po administered as single dose measured after 2 hrs; format: ADME, organism-based; settings: in vivo
Mus musculus [3] = species: Mus musculus; test: Anti-NASH activity in GAN diet-induced […] mouse assessed as bile acid level in gall bladder; format: functional, organism-based
Mus musculus [4] = species: Mus musculus; test: Anti-NASH activity in GAN diet-induced […] mouse assessed as reduction in cleaved caspase 1 level; format: functional, organism-based
Mus musculus [5] = species: Mus musculus; test: Anti-NASH activity in GAN diet-induced […] mouse assessed as downregulation of P-ycard level; format: functional, organism-based
Mus musculus [6] = species: Mus musculus; test: Anti-NASH activity in GAN diet-induced […] mouse assessed as suppression of FXR expression; format: functional, organism-based
Liver [7] = test: Anti-NASH activity in GAN diet-induced […] mouse liver assessed as reduction in hepatocyte fat by Oil Red O staining based assay; format: functional, cell-based
[8] = biological target: T1, Bile acid receptor (Mus musculus) (UniProt Q60641); test: In vivo antagonist activity against FXR in mouse assessed as stimulation of organoids growth in presence of FXR agonist; format: functional
T1 sequence (whole entry): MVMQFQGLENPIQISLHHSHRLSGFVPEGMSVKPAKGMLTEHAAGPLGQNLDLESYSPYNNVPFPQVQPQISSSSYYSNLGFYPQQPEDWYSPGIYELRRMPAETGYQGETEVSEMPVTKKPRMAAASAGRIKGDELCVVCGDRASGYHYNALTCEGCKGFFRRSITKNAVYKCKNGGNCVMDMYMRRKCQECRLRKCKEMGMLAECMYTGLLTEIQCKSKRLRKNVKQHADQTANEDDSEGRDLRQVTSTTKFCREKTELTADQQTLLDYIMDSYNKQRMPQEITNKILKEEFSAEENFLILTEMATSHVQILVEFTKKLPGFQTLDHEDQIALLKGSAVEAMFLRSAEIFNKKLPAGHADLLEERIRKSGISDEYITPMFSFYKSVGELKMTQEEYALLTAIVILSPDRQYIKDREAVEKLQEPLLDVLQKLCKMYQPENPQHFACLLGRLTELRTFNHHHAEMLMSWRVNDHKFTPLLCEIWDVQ

Mus musculus [9] = species: Mus musculus; test: Anti-NASH activity in GAN diet-induced […] mouse assessed as reduction in N-tcp mRNA level; format: functional, organism-based
Mus musculus [10] = species: Mus musculus; test: Anti-NASH activity in GAN diet-induced […] mouse assessed as increase in FXR protein by Western blot analysis; format: functional, organism-based
[11] = Drug metabolism in C57BL6 mouse liver assessed as ((1S,3aS,5aR,5bR,7aR,9R,11aR,11bR,13aR,13bR)-9-hydroxy-1-isopropyl-5a,5b,8,8,11a-pentamethylicosahydro-1H-cyclopenta[a]chrysene-3a-carbonyl)glycine formation at 10 mg/kg, po administered as single dose measured after 2 hrs; format: ADME, organism-based; settings: in vivo
[12] = biological target: T1, Bile acid receptor (Mus musculus); test: In vivo antagonist activity against FXR in microbeta depleted mouse assessed as reduction in taurocholic acid induced Fgf15 mRNA expression in ileum at 10 mg/kg, po incubated for 2 to 48 hrs; format: functional, organism-based; settings: time 2-48 hrs
Liver [13] = test: Anti-NASH activity in GAN diet-induced […] mouse liver assessed as reduction in macrosteatosis by H and E staining based analysis; format: functional
Mus musculus [14] = species: Mus musculus; test: Anti-NASH activity in GAN diet-induced […] mouse assessed as decrease in cholesterol in liver; format: functional, organism-based
Mus musculus [15] = species: Mus musculus; test: Anti-NASH activity in GAN diet-induced […] mouse assessed as suppression of Fgf15 expression; format: functional, organism-based
Mus musculus [16] = test: Anti-NASH activity in GAN diet-induced […] mouse assessed as reduction of sphinogo-myelin level in serum administered orally for 12 weeks; format: functional, organism-based; settings: route po
Mus musculus [17] = species: Mus musculus; test: Anti-NASH activity in GAN diet-induced […] mouse assessed as reduction in ALT level; format: functional, organism-based
Mus musculus [18] = species: Mus musculus; test: Anti-NASH activity in GAN diet-induced […] mouse assessed as reduction in Col1a1 level; format: functional, organism-based
Liver [19] = test: Anti-NASH activity in GAN diet-induced […] mouse liver assessed as reduction in hepatocyte collagen deposition by Oil Red O staining based assay; format: functional, cell-based

What does the source list for `CCCC(=O)O[C@@H]1CC[C@]2(C)[C@H]3CC[C@@H]4[C@H]5[C@H](C(C)C)CC[C@]5(C(=O)NCC(=O)O)CC[C@@]4(C)[C@]3(C)CC[C@H]2C1(C)C`?
Activity (Mus musculus [1]): Active; Drug metabolism [2]: Metabolite_Detected; Activity (Mus musculus [3]): Active; Activity (Mus musculus [4]): Active; Activity (Mus musculus [5]): Active; Activity (Mus musculus [6]): Active; Activity (Liver [7]): Active; Activity [8]: Active; Activity (Mus musculus [9]): Active; Activity (Mus musculus [10]): Active; Drug metabolism [11]: Metabolite_Detected; Activity [12]: Active; Activity (Liver [13]): Active; Activity (Mus musculus [14]): Active; Activity (Mus musculus [15]): Active; Activity (Mus musculus [16]): Active; Activity (Mus musculus [17]): Active; Activity (Mus musculus [18]): Active; Activity (Liver [19]): Active
